Data published in patent US10646488B2 (Araxes Pharma LLC, priority 2016, dated 2020).

Target: T1, KRAS G12C 1-169, his-tagged protein, GDP-loaded (Homo sapiens, UniProt P01116, G12C)
T1 construct: KRAS G12C 1-169, his-tagged protein, GDP-loaded
Assay: Covalent binding (% modification) to KRAS G12C by mass spectrometry; further: test concentration or dose not given here

[1] = covalent binding to KRAS G12C after a ten minute incubation period
[2] = covalent binding to KRAS G12C after a three minute incubation period

Row | Compound | Binding % [1] | Binding % [2]
1 | C=CC(=O)N1CCN(c2nc(N3CC(N(C)C)C3)nc3c(F)c(-c4c(C)ccc5cn[nH]c45)c(Cl)cc23)C[C@H]1C (atropisomer, axis not shown) [Compound 71, 1-((R)-4-((S)-6-chloro-2-(3-(dimethylamino)azetidin-1-yl)-8-fluoro-7-(6-methyl-1H-indazol-7-yl)quinazolin-4-yl)-2-methyl-piperazin-1-yl) prop-2-en-1-one] | + (+ indicates binding activity up to 50%) | 
2 | C=CC(=O)N1C[C@@H](C)N(c2nc(N3CC(N(C)C)C3)nc3c(F)c(-c4c(C)ccc5[nH]ncc45)c(Cl)cc23)[C@@H](C)C1 [Compound 40, 1-((3S,5R)-4-(6-chloro-2-(3-(dimethylamino)azetidin-1-yl)-8-fluoro-7-(5-methyl-1H-indazol-4-yl)quinazolin-4-yl)-3,5-dimethyl-piperazin-1-yl) prop-2-en-1-one] | ++ (++ indicates binding activity from 50 to 90%) | 
3 | C=CC(=O)N1C[C@H](C)N(c2nc(Oc3cnn(C)c3)nc3c(F)c(-c4cc(O)cc5ccccc45)c(Cl)cc23)C[C@H]1C [Compound 216, 1-((2R,5S)-4-(6-chloro-8-fluoro-7-(3-hydroxy-naphthalen-1-yl)-2-(1-methyl-1H-pyrazol-4-yloxy)quinazolin-4-yl)-2,5-dimethyl-piperazin-1-yl) prop-2-en-1-one] |  | ++ (++ indicates binding activity from 50 to 90%)
4 | C#CCN(C)C1CN(c2nc(N3C[C@@H](C)N(C(=O)C=C)C[C@@H]3C)c3cc(Cl)c(-c4c(C)ccc5cn[nH]c45)c(F)c3n2)C1 [Compound 148, 1-((2R,5S)-4-(6-chloro-8-fluoro-2-(3-(methyl (prop-2-yn-1-yl)amino)azetidin-1-yl)-7-(6-methyl-1H-indazol-7-yl)quinazolin-4-yl)-2,5-dimethyl-piperazin-1-yl) prop-2-en-1-one] |  | ++ (++ indicates binding activity from 50 to 90%)
5 | C=CC(=O)N1C[C@H](C)N(c2nc(N3CC(N(C)C)C3)nc3c(F)c(-c4c(O)cccc4F)c(Cl)cc23)C[C@H]1C [Compound 24, 1-((2R,5S)-4-(6-chloro-2-(3-(dimethylamino)azetidin-1-yl)-8-fluoro-7-(2-fluoro-6-hydroxyphenyl)quinazolin-4-yl)-2,5-dimethyl-piperazin-1-yl) prop-2-en-1-one] | ++ (++ indicates binding activity from 50 to 90%) | 
6 | C=CC(=O)N1C[C@@H](C)N(c2nc(N3CC(CO)C3)nc3c(F)c(-c4c(O)cccc4F)c(Cl)cc23)[C@@H](C)C1 [Compound 64, 1-((3R,5S)-4-(6-chloro-8-fluoro-7-(2-fluoro-6-hydroxyphenyl)-2-(3-(hydroxy-methyl)azetidin-1-yl)quinazolin-4-yl)-3,5-dimethyl-piperazin-1-yl) prop-2-en-1-one] | ++ (++ indicates binding activity from 50 to 90%) | 
7 | C=CC(=O)N1CCN(c2nc(N3CC(N(CC)CC)C3)nc3c(F)c(-c4c(O)cccc4F)c(Cl)cc23)[C@@H](C)C1 [Compound 174, 1-((3S)-4-(6-chloro-2-(3-(diethylamino)azetidin-1-yl)-8-fluoro-7-(2-fluoro-6-hydroxyphenyl)quinazolin-4-yl)-3-methyl-piperazin-1-yl) prop-2-en-1-one] |  | +++ (+++ indicates binding activity greater than 90%)
8 | C=CC(=O)N1CCN(c2nc(OCCN(CC)CC)nc3c(F)c(-c4c(C)ccc5cn[nH]c45)c(Cl)cc23)[C@@H](C)C1 [Compound 28, 1-((3S)-4-(6-chloro-2-(2-(diethylamino)ethoxy)-8-fluoro-7-(6-methyl-1H-indazol-7-yl)quinazolin-4-yl)-3-methyl-piperazin-1-yl) prop-2-en-1-one] | +++ (+++ indicates binding activity greater than 90%) | 
9 | C=CC(=O)N1[C@H](C)CN(c2nc(N3CC(N(C)C)C3)nc3c(F)c(-c4c(O)cccc4F)c(Cl)cc23)C[C@@H]1C [Compound 67, 1-((2R,6S)-4-((S)-6-chloro-2-(3-(dimethylamino)azetidin-1-yl)-8-fluoro-7-(2-fluoro-6-hydroxyphenyl)quinazolin-4-yl)-2,6-dimethyl-piperazin-1-yl) prop-2-en-1-one] | + (+ indicates binding activity up to 50%) | 
